Reference: patent US4217355A, “Amide therapeutic agents” (Pfizer Inc., priority 1978, dated 1980)

Columns and labels:
[1] = test system: inflammation in adrenalectomized animals; assay: anti-inflammatory activity in adrenalectomized animals; type: in vivo, rats
Source text: As previously indicated, the N-(2-thiazolyl)amide compounds of the present invention are all readily adapted to therapeutic use as anti-inflammatory agents and as immunoregulators, particularly in view of their ability to reduce the swelling and relieve the pain caused by arthritic and other inflammatory disorders that are normally associated with such basic ailments as rheumatoid arthritis and the like. […] A. Winter et al., Proc. Soc. Exp. Biol. Med., Vol. 111, p.

[2] = test system: murine thymus cells; assay: lymphocyte stimulation assay (LSA), in vitro lymphocyte proliferation of murine thymus cells cultured in the presence of Concanavalin A; type: cell-based, male C57B1/6 mice; details: in vitro; Con A present; 48 hours at 37° C.; score at drug level with maximum activity
Source text: On the other hand, the activity of the compounds of the present invention, as immunoregulator agents, is based on a study of their ability to stimulate, in vitro, the lymphocyte proliferation of murine thymus cells cultured in the presence of Concanavalin A (Con A) by employing the general evaluation procedure of V. J. Merluzzi et al., as described in the Journal of Clinical and Experimental Immunology, Vol. 22, p. 486 (1975).
486 (1975). The cells were derived from male C57B1/6 mice of from 6-8 weeks age, purchased from the Jackson Laboratories of Bar Harbor, Maine and the Con A was obtained from Sigma Chemicals of St. Louis, Missouri. Each cell culture (consisting of 0.10 ml. thymus cells stock solution, 0.05 ml. of Con A stock solution and 0.05 ml. of drug solution) was performed in quadruplicate and cellular proliferation was measured, after 48 hours of incubation at 37° C., by pulsing each culture with ^3 H-thymidine (0.01 ml. of specific activity 1.9 C/mM, obtained from Schwarz-Mann, Inc. of Orangeburg, N.Y.) and then determining the incorporation of ^3 H-thymidine into cellular desoxyribonucleic acid (DNA) by an assessment of radioactivity using a liquid scintillation counter.

[3] = test system: carrageenin-induced edema in the hind paw; assay: carrageenin-induced rat food edema test (inhibition of edema formation in the hind paw); type: in vivo, male albino rats
Method: A. Winter et al., Proc. Soc. Exp. Biol. Med., Vol. 111, p.
A. Winter et al., as earlier reported in the Proceedings of the Society of Experimental Biology and Medicine, Vol. 111, p. 544 (1962). In this test, anti-inflammatory activity is determined as the percent inhibition of edema formation in the hind paw of male albino rats (weighing 150-190 g.) in response to a sub-plantar injection of carrageenin. The carrageenin is injected as a 1% aqueous suspension (0.05 ml.) one hour after oral administration of the drug, which is normally given in the form of an aqueous solution. Edema formation is then assessed three hours after the carrageenin injection by measuring the volume of the injected paw initially as well as at the three-hour mark. The increase in volume three hours after carrageenin injection constitutes the individual response.
The following N-(2-thiazolyl)amides were tested for anti-inflammatory activity in rats, using the standard carrageen-ininduced rat food edema test, according to the procedure essentially described by C. A. Winter et al., as first reported in the Proceedings of the Society for Experimental Biology and Medicine, Vol. 111, p. 544 (1962). […]

O=C(CNCc1ccccc1)Nc1nccs1 [X=H, R1=H, R2=benzyl, N-(2-thiazolyl)-α-benzylaminoacetamide]
anti-inflammatory activity in adrenalectomized animals [1]: retaining its extremely potent anti-inflammatory activity in adrenalectomized animals to a significantly high degree | LSA Activity [2]: +++ (those having an activity greater than levamisole (27,000±1,000 cpm) were scored as +++) | % Inhibition of edema formation (swelling) ([3]; rat, oral, 1.0 mg./kg.): 35% | % Inhibition of edema formation ([3]; rat, oral, 33 mg./kg., three hours after carrageenin injection): 52% | oral dose levels at which the non-steroidal therapeutic effect is exhibited ([3]; rats, tested orally): 0.33 to 33 mg/kg
